These compounds were tested on HBV (assay: HBV inhibition assay in HepAD38 cells (extracellular HBV DNA by direct qPCR)). Conditions: Hepatitis B virus, 8-point dose-response curve, 96 hours, read-out: HBV inh EC50.
Format: cell-based
Method in brief: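 HepAD38 cells (HepG2, tetracycline-off HBV) induced in tetracycline-free medium, treated 96 h at 37 °C with compound, 0.5% DMSO. Extracellular HBV DNA quantified by direct SYBR qPCR of lysed supernatant, as % of untreated; EC50 from 8-point 1:2 curves; cytotoxicity by CellTiter-Blue.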

Row | SMILES | EC50 [nM]
1 | O=C(Nc1cc(F)c(F)c(F)c1)c1cc2c(cc1Cl)NCNS2(=O)=O [Example E7, 6-chloro-N-(3,4,5-trifluorophenyl)-3,4-dihydro-2H-benzo[e][1,2,4]thiadiazine-7-carboxamide 1,1-dioxide] | < 1000
2 | O=C(Nc1cc(F)c(F)c(F)c1)c1ccc2c(c1)S(=O)(=O)NC(c1c(F)cccc1F)N2 (stereo not shown) [Example E35, 3-(2,6-difluorophenyl)-N-(3,4,5-trifluorophenyl)-3,4-dihydro-2H-benzo[e][1,2,4]thiadiazine-7-carboxamide 1,1-dioxide] | < 1000
3 | CC1Nc2cc(Cl)c(C(=O)Nc3cc(F)c(F)c(F)c3)cc2S(=O)(=O)N1 (stereo not shown) [Example E10, 6-chloro-3-methyl-N-(3,4,5-trifluorophenyl)-3,4-dihydro-2H-benzo[e][1,2,4]thiadiazine-7-carboxamide 1,1-dioxide] | < 1000
4 | O=C(Nc1cc(F)c(F)c(F)c1)c1ccc2c(c1)S(=O)(=O)N[C@@]1(N2)C(=O)Nc2ccccc21 (single isomer, unassigned) [Example E130] | < 1000

Same assay, conditions: Hepatitis B virus, compound at 0.5 µM, 96 hours, relative to non-treated reference, read-out: Anti HBV Activity (conc µM)

Row | SMILES | inhibition at 0.5 µM [%]
5 | O=C(Nc1cc(F)c(F)c(F)c1)c1ccc2c(c1)S(=O)(=O)N(C1CCNCC1)CN2 [Example E61, 2-(piperidin-4-yl)-N-(3,4,5-trifluorophenyl)-3,4-dihydro-2H-benzo[e][1,2,4]thiadiazine-7-carboxamide 1,1-dioxide] | < 50
6 | O=C(Nc1cc(F)c(F)c(F)c1)c1ccc2c(c1)S(=O)(=O)NCN2O [Example E4, 4-hydroxy-N-(3,4,5-trifluorophenyl)-3,4-dihydro-2H-benzo[e][1,2,4]thiadiazine-7-carboxamide 1,1-dioxide] | < 50
7 | O=C(Nc1cc(F)c(F)c(F)c1)c1ccc2c(c1)S(=O)(=O)N1CCCC1N2 (stereo not shown) [Example E64, N-(3,4,5-trifluorophenyl)-2,3,10,10a-tetrahydro-1H-benzo[e]pyrrolo[1,2-b][1,2,4]thiadiazine-7-carboxamide 5,5-dioxide] | < 50
8 | C[C@H](N1C(=O)Nc2ccc(C(=O)Nc3cc(F)c(F)c(F)c3)cc2S1(=O)=O)C(F)(F)F [Example E78, (S)-3-oxo-N-(3,4,5-trifluorophenyl)-2-(1,1,1-trifluoropropan-2-yl)-3,4-dihydro-2H-benzo[e][1,2,4]thiadiazine-7-carboxamide 1,1-dioxide] | > 50
9 | O=C(Nc1cc(F)c(F)c(F)c1)c1cnc2c(c1)S(=O)(=O)N([C@H]1CC[C@H](O)CC1)C(=O)N2 [Example E121, trans-2-(4-hydroxycyclohexyl)-3-oxo-N-(3,4,5-trifluorophenyl)-3,4-dihydro-2H-pyrido[2,3-e][1,2,4]thiadiazine-7-carboxamide 1,1-dioxide] | < 50
10 | O=C(Nc1cc(F)c(F)c(F)c1)c1ccc2c(c1)S(=O)(=O)N([C@H]1C[C@@H](O)C1)C(=O)N2 [Example E124, Cis-2-(3-hydroxycyclobutyl)-3-oxo-N-(3,4,5-trifluorophenyl)-3,4-dihydro-2H-benzo[e][1,2,4]thiadiazine-7-carboxamide 1,1-dioxide] | > 50
11 | O=C(Nc1cc(F)c(F)c(F)c1)c1ccc2c(c1)S(=O)(=O)N[C@H]1CCC[C@@H]1N2 [Example E95, (3aS, 10aS)-N-(3,4,5-trifluorophenyl)-2,3,3a,4,10,10a-hexahydro-1H-benzo[f]cyclopenta[c][1,2,5]thiadiazepine-7-carboxamide 5,5-dioxide] | < 50
12 | [2H]C1([2H])Nc2ccc(C(=O)Nc3cc(F)c(F)c(F)c3)cc2S(=O)(=O)N1 [Example E2, N-(3,4,5-trifluorophenyl)-3,4-dihydro-2H-benzo[e][1,2,4]thiadiazine-3,3-d2-7-carboxamide 1,1-dioxide] | > 50
13 | O=C(Nc1cc(F)c(F)c(F)c1)c1ccc2c(c1)S(=O)(=O)NC(CCO)N2 (stereo not shown) [Example E22, 3-(2-hydroxyethyl)-N-(3,4,5-trifluorophenyl)-3,4-dihydro-2H-benzo[e][1,2,4]thiadiazine-7-carboxamide 1,1-dioxide] | > 50
14 | O=C(Nc1cc(F)c(F)c(F)c1)c1ccc2c(c1)S(=O)(=O)N(C1CC1)CN2 [Example E60, 2-cyclopropyl-N-(3,4,5-trifluorophenyl)-3,4-dihydro-2H-benzo[e][1,2,4]thiadiazine-7-carboxamide 1,1-dioxide] | < 50

Same assay, conditions: Hepatitis B virus, compound at 1 µM, 96 hours, relative to non-treated reference, read-out: Anti HBV Activity (conc µM)

Row | SMILES | inhibition at 1 µM [%]
15 | CC1(c2ccc(Cl)cn2)Nc2ccc(C(=O)Nc3cc(F)c(F)c(F)c3)cc2S(=O)(=O)N1 (stereo not shown) [Example E53, 3-(5-chloropyridin-2-yl)-3-methyl-N-(3,4,5-trifluorophenyl)-3,4-dihydro-2H-benzo[e][1,2,4]thiadiazine-7-carboxamide 1,1-dioxide] | > 50
16 | CN1C(=O)Nc2ccc(C(=O)Nc3cc(F)c(F)c(F)c3)cc2S1(=O)=O [Example E76, 2-methyl-3-oxo-N-(3,4,5-trifluorophenyl)-3,4-dihydro-2H-benzo[e][1,2,4]thiadiazine-7-carboxamide 1,1-dioxide] | > 50
17 | O=C(Nc1cc(F)c(F)c(F)c1)c1ccc2c(c1)S(=O)(=O)N1CCCCC1CO2 (stereo not shown) [Example E111, N-(3,4,5-trifluorophenyl)-1,2,3,4,12,12a-hexahydrobenzo[b]pyrido[1,2-e][1,4,5]oxathiazepine-8-carboxamide 6,6-dioxide] | < 50
18 | O=C(Nc1cc(F)c(F)c(F)c1)c1ccc2c(c1)S(=O)(=O)NC(c1cccnc1)N2 (stereo not shown) [Example E48, 3-(pyridin-3-yl)-N-(3,4,5-trifluorophenyl)-3,4-dihydro-2H-benzo[e][1,2,4]thiadiazine-7-carboxamide 1,1-dioxide] | > 50
19 | CN1C=NS(=O)(=O)c2cc(C(=O)Nc3cc(F)c(F)c(F)c3)c(F)cc21 [Example E73, 6-fluoro-4-methyl-N-(3,4,5-trifluorophenyl)-4H-benzo[e][1,2,4]thiadiazine-7-carboxamide 1,1-dioxide] | < 50
20 | O=C(Nc1cc(F)c(F)c(F)c1)c1ccc2c(c1)S(=O)(=O)NCC(CO)O2 (stereo not shown) [Example E139, 4-(hydroxymethyl)-N-(3,4,5-trifluorophenyl)-3,4-dihydro-2H-benzo[b][1,4,5]oxathiazepine-8-carboxamide 1,1-dioxide] | < 50
21 | O=C(Nc1cc(F)c(F)c(F)c1)c1ccc2c(c1)S(=O)(=O)NC(c1cccs1)N2 (stereo not shown) [Example E43, 3-(thiophen-2-yl)-N-(3,4,5-trifluorophenyl)-3,4-dihydro-2H-benzo[e][1,2,4]thiadiazine-7-carboxamide 1,1-dioxide] | > 50
22 | O=C(Nc1cc(F)c(F)c(F)c1)c1ccc2c(c1)S(=O)(=O)NCN2 [Example E1, N-(3,4,5-trifluorophenyl)-3,4-dihydro-2H-benzo[e][1,2,4]thiadiazine-7-carboxamide 1,1-dioxide] | > 50
23 | O=C(Nc1cc(F)c(F)c(F)c1)c1ccc2c(c1)S(=O)(=O)NC(c1cscn1)N2 (stereo not shown) [Example E41, 3-(thiazol-4-yl)-N-(3,4,5-trifluorophenyl)-3,4-dihydro-2H-benzo[e][1,2,4]thiadiazine-7-carboxamide 1,1-dioxide] | > 50
24 | CC1(C)Nc2ccc(C(=O)Nc3ccc(F)c(F)c3)cc2S(=O)(=O)N1 [Example E120, N-(3,4-difluorophenyl)-3,3-dimethyl-3,4-dihydro-2H-benzo[e][1,2,4]thiadiazine-7-carboxamide 1,1-dioxide] | > 50
25 | O=C(Nc1cc(F)c(F)c(F)c1)c1ccc2c(c1)S(=O)(=O)N1CCCC1CN2 (stereo not shown) [Example E106, N-(3,4,5-trifluorophenyl)-1,2,3,10,11,11a-hexahydrobenzo[f]pyrrolo[1,2-b][1,2,5]thiadiazepine-7-carboxamide 5,5-dioxide] | < 50
26 | O=C(Nc1cc(F)c(F)c(F)c1)c1ccc2c(c1)S(=O)(=O)n1ccnc1CN2 [Example E109, N-(3,4,5-trifluorophenyl)-10,11-dihydrobenzo[f]imidazo[1,2-b][1,2,5]thiadiazepine-7-carboxamide 5,5-dioxide] | < 50
27 | O=C(Nc1cc(F)c(F)c(F)c1)c1ccc2c(c1)S(=O)(=O)NC(c1ccccn1)N2 (stereo not shown) [Example E44, 3-(pyridin-2-yl)-N-(3,4,5-trifluorophenyl)-3,4-dihydro-2H-benzo[e][1,2,4]thiadiazine-7-carboxamide 1,1-dioxide] | > 50
28 | O=C(Nc1ccc(F)c(F)c1)c1ccc2c(c1)S(=O)(=O)NC(c1nccs1)N2 (stereo not shown) [Example E50, N-(3,4-difluorophenyl)-3-(thiazol-2-yl)-3,4-dihydro-2H-benzo[e][1,2,4]thiadiazine-7-carboxamide 1,1-dioxide] | > 50
